Tested on: Cladosporium sphaerospermum
Assay: Antifungal activity against Cladosporium sphaerospermum after 72 hrs in dark by TLC assay
Assay type: functional

O=C(/C=C\C=C/CCc1ccc2c(c1)OCO2)N1CCCC1
MIC: 8 µg

Source: ChEMBL document CHEMBL1150884, “Antifungal amide from leaves of Piper hispidum” (1998)
